The values below come from patent publication US8871777B2, “Phenylpyrimidone compounds, the pharmaceutical compositions, preparation methods and uses thereof” (Topharman Shanghai Co., Ltd., priority 2008, dated 2014).

The target in assay [1] is T1, human blood platelet PDE5 (Homo sapiens, UniProt O76074).
T1 construct: obtained by suitably treating various tissues and separating the enzyme with FPLC; from tissue; host or cells: human blood platelets
In words: PDE5 enzyme inhibition activity test (scintillation proximity). It counts as biochemical. As to the method: (§1) More specifically, PDE5 and PDE3 were obtained from human blood platelet, and PDE6 was separated from bovine retina. Upon enzyme was separated out, the enzyme inhibition activity test would be carried out immediately. The said enzyme inhibition activity test was performed by directly detecting the scintillation proximity of AMP/GMP using TRKQ7100 and TRKQ7090 kits, which was generally as follows. In the presence of different concentrations of inhibitor and a small amount of substrate, 10 μl of buffer (50 mM Tris/HCl PH 7.5, 8.3 mM MgCl2, 1.7 mM EGTA) was added, and then water was added to a final volume of 100 μl. The reaction was initiated with a fixed amount of enzyme, incubated at 30° C. for 30 min, and then quenched with 50 μl of yttrium silicate beads comprising zinc sulphate. After shaken for 20 min, the reaction mixture was put in dark and settled for 30 min, and then readed on a BECKMAN LS6500 MULTI-PURPOSE SCINTILLATION COUNTER.
(SPA uses beads or plates that emit light when radiolabelled molecules are held near them.)

In another assay the target is T2, PDE6 in bovine retina (Bos taurus, UniProt P11541+P23439).
T2 construct: obtained by suitably treating various tissues and separating the enzyme with FPLC; from tissue; host or cells: bovine retina
T2 sequence (P11541 2-856 limits assumed): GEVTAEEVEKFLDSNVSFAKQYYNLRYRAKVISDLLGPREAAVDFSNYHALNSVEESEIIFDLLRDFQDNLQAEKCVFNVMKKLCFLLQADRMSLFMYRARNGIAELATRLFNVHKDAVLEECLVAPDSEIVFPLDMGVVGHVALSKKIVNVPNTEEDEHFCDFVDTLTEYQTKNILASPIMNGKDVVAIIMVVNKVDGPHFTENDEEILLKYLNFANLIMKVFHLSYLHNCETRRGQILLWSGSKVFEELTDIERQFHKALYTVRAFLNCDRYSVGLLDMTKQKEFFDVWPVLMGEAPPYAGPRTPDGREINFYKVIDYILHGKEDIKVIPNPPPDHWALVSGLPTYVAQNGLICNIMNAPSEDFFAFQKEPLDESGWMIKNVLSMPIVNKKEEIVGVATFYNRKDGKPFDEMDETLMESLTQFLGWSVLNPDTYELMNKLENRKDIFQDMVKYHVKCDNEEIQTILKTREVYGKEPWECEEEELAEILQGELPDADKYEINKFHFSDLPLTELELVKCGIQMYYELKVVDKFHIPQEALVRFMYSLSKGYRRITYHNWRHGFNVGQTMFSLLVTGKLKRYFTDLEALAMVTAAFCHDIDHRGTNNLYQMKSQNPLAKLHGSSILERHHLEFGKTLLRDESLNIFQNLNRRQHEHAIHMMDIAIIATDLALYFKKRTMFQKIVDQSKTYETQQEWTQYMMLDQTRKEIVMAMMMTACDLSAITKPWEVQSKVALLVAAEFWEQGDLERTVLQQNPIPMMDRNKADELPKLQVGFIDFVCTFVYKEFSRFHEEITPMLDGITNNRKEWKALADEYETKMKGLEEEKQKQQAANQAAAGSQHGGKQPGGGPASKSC
T2 sequence (P23439 2-850 limits assumed): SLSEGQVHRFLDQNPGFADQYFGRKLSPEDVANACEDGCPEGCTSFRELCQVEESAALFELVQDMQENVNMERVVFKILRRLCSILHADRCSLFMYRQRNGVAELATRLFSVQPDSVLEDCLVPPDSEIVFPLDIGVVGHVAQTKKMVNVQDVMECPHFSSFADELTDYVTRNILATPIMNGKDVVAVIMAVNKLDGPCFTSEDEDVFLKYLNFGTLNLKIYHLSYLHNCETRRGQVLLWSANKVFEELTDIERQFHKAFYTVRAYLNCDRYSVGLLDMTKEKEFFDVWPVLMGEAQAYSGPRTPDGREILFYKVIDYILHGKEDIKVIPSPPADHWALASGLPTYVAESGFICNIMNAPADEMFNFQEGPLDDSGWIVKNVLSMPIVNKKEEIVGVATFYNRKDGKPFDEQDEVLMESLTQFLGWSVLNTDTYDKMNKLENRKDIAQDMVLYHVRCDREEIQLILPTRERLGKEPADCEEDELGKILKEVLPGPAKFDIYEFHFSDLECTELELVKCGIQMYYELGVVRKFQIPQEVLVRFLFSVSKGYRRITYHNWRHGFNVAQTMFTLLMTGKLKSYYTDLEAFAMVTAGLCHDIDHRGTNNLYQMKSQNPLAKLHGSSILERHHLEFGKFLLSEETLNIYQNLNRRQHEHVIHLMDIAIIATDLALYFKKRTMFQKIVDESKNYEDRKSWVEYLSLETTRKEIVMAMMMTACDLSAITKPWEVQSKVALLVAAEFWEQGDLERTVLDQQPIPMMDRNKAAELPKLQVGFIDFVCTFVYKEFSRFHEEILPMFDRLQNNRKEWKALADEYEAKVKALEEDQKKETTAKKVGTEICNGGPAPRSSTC
In words: PDE6 enzyme inhibition activity test (scintillation proximity). It counts as biochemical. To be noted: for IC50: PDE6 separated from bovine retina, read-out: PDE6 IC50; for PDE6 IC50/PDE5 IC50: selectivity, ratio of IC50 PDE6/IC50 PDE5. As to the method: as §1

For `CCCOc1ccc(S(=O)(=O)NCCN2CCOCC2)cc1-c1nc(CC)c(CC)c(=O)[nH]1` [Example 31, 5,6-diethyl-2-{2-n-propoxy-5-[N-(2-morpholinylethyl)aminosulfonyl)phenyl}pyrimid-4(3H)-one], the half-inhibitory concentration (IC50) (usually the concentration needed to halve the response being measured) amounted to 1.36 nM in assay [1] (PDE5 table), 1.36 nM in assay [1] (as repeated in the PDE6 table) and 52.8 nM at PDE6 in bovine retina. Besides, on PDE6 in bovine retina, the “PDE6 IC50/PDE5 IC50” value was found to be 38.8.
Regarding `CCCOc1ccc(S(=O)(=O)N2CCCC2C(=O)O)cc1-c1nc(CC)c(CC)c(=O)[nH]1` (centres unmarked) [Example 32], the figures for the 50% inhibitory concentration (IC50) (in assay [1] (PDE5 table); in assay [1] (as repeated in the PDE6 table); at PDE6 in bovine retina) were 2.02 nM, 2.02 nM and 40.6 nM, respectively. Further, at PDE6 in bovine retina, the “PDE6 IC50/PDE5 IC50” value was determined as 20.1.
On to `CCCOc1ccc(NC(=S)NCC)cc1-c1nc(CC)c(CC)c(=O)[nH]1` [Example 43, 1-(3-(4,5-Diethyl-1,6-dihydro-6-oxopyrimidin-2-yl)-4-n-propoxyphenyl)-3-ethylthiourea], for which the 50% inhibitory concentration (IC50) in assay [1] (PDE5 table) is 3.72 nM; in assay [1] (as repeated in the PDE6 table) it was 3.72 nM; at PDE6 in bovine retina, 42.8 nM. The “PDE6 IC50/PDE5 IC50” value on PDE6 in bovine retina is reported as 11.5.
In the case of `CCCOc1ccc(N/C(=N/CC)N(CC)CC)cc1-c1nc(CC)c(CC)c(=O)[nH]1` [Example 46, N-[3-(4,5-diethyl-1,6-dihydro-6-oxopyrimidin-2-yl)-4-n-propoxyphenyl]-N′,N″-triethylguanidine], the 50% inhibitory concentration (IC50) came out at 1.09 nM in assay [1] (PDE5 table), 1.09 nM in assay [1] (as repeated in the PDE6 table) and 642 nM at PDE6 in bovine retina. Further, on PDE6 in bovine retina, the “PDE6 IC50/PDE5 IC50” value was found to be 589.0.
Take `CCCOc1ccc(NC(=O)N2CCCC2)cc1-c1nc(CC)c(CC)c(=O)[nH]1` [Example 49]: the IC50 in assay [1] (PDE5 table) is 1.86 nM; in assay [1] (as repeated in the PDE6 table), 1.86 nM; at PDE6 in bovine retina, 620 nM. The “PDE6 IC50/PDE5 IC50” value at PDE6 in bovine retina worked out at 10.5.
`CCCOc1ccc(NS(C)(=O)=O)cc1-c1nc(C(C)C)c(Br)c(=O)[nH]1` [Example 50, 5-Bromo-6-isopropyl-2-(2-n-propoxy-5-mesylamidophenyl)pyrimid-4(3H)-one] displayed a 50% inhibitory concentration (IC50) in assay [1] (PDE5 table) of 1.24 nM. On PDE6 in bovine retina, the IC50 came out at 114 nM and the “PDE6 IC50/PDE5 IC50” value was 91.9.
Take `CCCOc1ccc(NS(C)(=O)=O)cc1-c1nc(CC)c(CC)c(=O)[nH]1` [Example 51, 5,6-Diethyl-2-(2-n-propoxy-5-mesylamidophenyl)pyrimid-4(3H)-one]: the 50% inhibitory concentration (IC50) turned out to be 1.23 nM in assay [1] (PDE5 table), 1.23 nM in assay [1] (as repeated in the PDE6 table) and 34.8 nM at PDE6 in bovine retina. Also, the “PDE6 IC50/PDE5 IC50” value at PDE6 in bovine retina was determined as 28.3.
For `CCCOc1ccc(NC(C)=O)cc1-c1nc(C(C)C)c(Br)c(=O)[nH]1` [Example 52, N-(3-(1,6-dihydro-4-isopropyl-5-bromo-6-oxopyrimidin-2-yl)-4-propoxyphenyl)acetamide], the figures for the IC50 (in assay [1] (PDE5 table); in assay [1] (as repeated in the PDE6 table); at PDE6 in bovine retina) were 1.46 nM, 1.46 nM and 52.6 nM, respectively. For the same compound, the “PDE6 IC50/PDE5 IC50” value on PDE6 in bovine retina is recorded as 36.0.
On to `CCCOc1ccc(NC(C)=O)cc1-c1nc(CC)c(CC)c(=O)[nH]1` [Example 53, N-(3-(1,6-dihydro-4,5-diethyl-6-oxopyrimidin-2-yl)-4-propoxyphenyl)acetamide], for which the half-maximal inhibitory concentration (IC50) in assay [1] (PDE5 table) was found to be 0.57 nM; in assay [1] (as repeated in the PDE6 table), 0.57 nM; at PDE6 in bovine retina, 36.8 nM. In addition, at PDE6 in bovine retina, the “PDE6 IC50/PDE5 IC50” value came to 66.2.
With `CCCOc1ccc(NC(=O)CC)cc1-c1nc(CC)c(CC)c(=O)[nH]1` [Example 54, N-(3-(1,6-dihydro-4,5-diethyl-6-oxopyrimidin-2-yl)-4-propoxyphenyl)propionamide], the IC50 in assay [1] (PDE5 table) turned out to be 1.21 nM; in assay [1] (as repeated in the PDE6 table), 1.21 nM; on PDE6 in bovine retina, 13.2 nM. The “PDE6 IC50/PDE5 IC50” value on PDE6 in bovine retina was 10.9.
Turning to `CCCOc1ccc(NC(=O)C2CCCCC2)cc1-c1nc(CC)c(CC)c(=O)[nH]1` [Example 55, N-(3-(1,6-dihydro-4,5-diethyl-6-oxopyrimidin-2-yl)-4-propoxyphenyl)cyclohexamide], the figures for the IC50 (in assay [1] (PDE5 table); in assay [1] (as repeated in the PDE6 table); at PDE6 in bovine retina) were 0.92 nM, 0.93 nM and 20.1 nM, respectively. On PDE6 in bovine retina, the “PDE6 IC50/PDE5 IC50” value worked out at 21.8.
On the same counts, the results for `CCCOc1ccc(NC(=O)C2CC(O)CN2C(=O)OC(C)(C)C)cc1-c1nc(CC)c(CC)c(=O)[nH]1` (centres unmarked) [Example 57, N-(3-(1,6-dihydro-4,5-diethyl-6-oxopyrimidin-2-yl)-4-propoxyphenyl)-1-t-butyloxycarbonyl-4-hydroxyprolylamide] are 1.19 nM, 1.19 nM, 8.19 nM and 6.9.
On the same counts, the results for `CCCOc1ccc(C(=O)N2CCOCC2)cc1-c1nc(CC)c(CC)c(=O)[nH]1` [Example 59, (Morpholin-1-yl)(3-(4,5-diethyl-1,6-dihydro-6-oxopyrimidin-2-yl)-4-n-propoxy)benzophenone] are 0.57 nM, 0.57 nM, 7.88 nM and 13.7.
As to `CCCOc1ccc(C(=O)N2CCCCC2)cc1-c1nc(CC)c(CC)c(=O)[nH]1` [Example 60, (piperid-1-yl)(3-(4,5-diethyl-1,6-dihydro-6-oxopyrimidin-2-yl)-4-n-propoxy)benzophenone], the half-maximal inhibitory concentration (IC50) is 2.04 nM in assay [1] (PDE5 table), 2.04 nM in assay [1] (as repeated in the PDE6 table) and 8.19 nM on PDE6 in bovine retina. The “PDE6 IC50/PDE5 IC50” value at PDE6 in bovine retina was 4.0.
`CCCOc1ccc(C(=O)N2CCCC2C(N)=O)cc1-c1nc(CC)c(CC)c(=O)[nH]1` (centres unmarked) [Example 61]: the IC50 in assay [1] (PDE5 table) was 1.93 nM; in assay [1] (as repeated in the PDE6 table) it was 1.93 nM; on PDE6 in bovine retina it was 29.1 nM. In addition, the “PDE6 IC50/PDE5 IC50” value at PDE6 in bovine retina came to 15.1.
As for `CCCOc1ccc(NC(=O)CN2CCN(C)CC2)cc1-c1nc(CC)c(CC)c(=O)[nH]1` [Example 179, N-(3-(4,5-diethyl-1,6-dihydro-6-oxopyrimidin-2-yl)-4-n-propoxyphenyl)-2-(4-methylpiperazin-1-yl)acetamide], the half-maximal inhibitory concentration (IC50) on PDE6 in bovine retina turned out to be 22.2 nM.
Compound `CCCOc1ccc(C(=O)NCCCS(=O)(=O)N2CCN(C)CC2)cc1-c1nc(CC)c(CC)c(=O)[nH]1` [Example 216, 3-(4,5-diethyl-1,6-dihydro-6-oxopyrimidin-2-yl)-N-(4-methyl-1-piperazinylsulfonylpropyl)-4-n-propoxybenzamide] showed an IC50 in assay [1] (PDE5 table) of 0.83 nM.
In assay [1] (PDE5 table), `CCCOc1ccc(C2OC(CO)C(O)C(O)C2O)cc1-c1nc(CC)c(CC)c(=O)[nH]1` (centres unmarked) [Example 218, 5,6-Diethyl-2-(5-(tetrahydro-3,4,5-trihydroxy-6-(hydroxymethyl)-2H-pyran-2-yl)-2-n-propoxyphenyl)pyrimid-4(3H)-one] returned an IC50 of 8.63 nM.
